Reference: patent US20260138978A1, “POSITIVE ALLOSTERIC MODULATORS OF THE MUSCARINIC ACETYLCHOLINE RECEPTOR M1” (Vanderbilt University, priority 2022, published 2026)

Assays:
human mAChRM1 [1] = target: T1, human mAChRM1 (Homo sapiens, UniProt P11229); experiment: mAChR M1 cell-based functional assay (calcium mobilization), positive allosteric modulator activity: increase in the EC20 acetylcholine response; details: for Emax: PAM mode; for EC50: read-out: PAM Activity Human M1 EC50
T1 construct: host or cells: CHO-K1
T1 sequence (P11229 1-460): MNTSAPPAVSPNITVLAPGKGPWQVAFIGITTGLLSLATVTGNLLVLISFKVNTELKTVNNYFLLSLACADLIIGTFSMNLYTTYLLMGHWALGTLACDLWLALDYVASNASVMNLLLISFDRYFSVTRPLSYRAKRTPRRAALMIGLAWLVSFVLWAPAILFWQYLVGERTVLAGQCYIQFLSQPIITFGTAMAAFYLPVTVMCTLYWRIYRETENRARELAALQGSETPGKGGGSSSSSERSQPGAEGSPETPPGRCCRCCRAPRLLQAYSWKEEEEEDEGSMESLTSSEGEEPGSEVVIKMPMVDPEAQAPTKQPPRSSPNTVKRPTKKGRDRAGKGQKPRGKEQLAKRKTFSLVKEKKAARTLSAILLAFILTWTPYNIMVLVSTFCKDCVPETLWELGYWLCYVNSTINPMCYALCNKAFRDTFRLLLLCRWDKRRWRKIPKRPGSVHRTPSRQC
How it was run: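 CHO-K1 cells stably expressing human M1, loaded with Fluo-4 AM; calcium flux recorded on FDSS at 1 Hz over 300 s following compound addition. PAM activity is the concentration-dependent increase of an EC20 acetylcholine response; EC50 and Emax from four-parameter logistic fits of 11-point, 1:3 concentration series.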

human mAChRM1 [2] = target: T1, human mAChRM1; experiment: mAChR M1 cell-based functional assay (calcium mobilization), agonist activity upon compound addition, Emax relative to acetylcholine maximum; details: for Agonist Activity Human M1 EC50 / EC50: calcium mobilization upon compound addition; for Emax: relative to the maximum for acetylcholine
How it was run: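 CHO-K1 cells stably expressing human M1 were loaded with Fluo-4 AM for 50 min at 37 °C. Compound was added 4 s into a 300 s FDSS read at 1 Hz, over 11-point 1:3 dilution curves. Agonism was taken as a concentration-dependent rise in calcium fluorescence ratio, with Emax expressed relative to the acetylcholine maximum from four-parameter logistic fits.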

[3] = increase in the EC20 acetylcholine response

Row | SMILES | Emax (human mAChRM1 [1]) [%] | EC50 (human mAChRM1 [1]; [3]) [nM] | Agonist Activity Human M1 EC50 (human mAChRM1 [2]) | PAM Activity Human M1 EC50 (human mAChRM1 [1]; [3]) | EC50 (human mAChRM1 [2]) [nM] | Emax (human mAChRM1 [2]) [%]
1 | CCC(C)(O)c1ccc(-c2cc(F)c(CN3Cc4ncccc4C3=O)c(F)c2)c2cn(C)nc12 (stereo not shown) [Compound 82, 6-(2,6-difluoro-4-(7-(2-hydroxybutan-2-yl)-2-methyl-2H-indazol-4-yl)benzyl)-6,7-dihydro-5H-pyrrolo[3,4-b]pyridin-5-one] | 80 | 138 | inactive |  |  | 
2 | CC(C)(O)c1cc(-c2cc(F)c(CN3Cc4ncccc4C3=O)c(F)c2)c2[nH]nnc2c1 [Compound 83, 6-(2,6-difluoro-4-(5-(2-hydroxypropan-2-yl)-1H-benzo[d][1,2,3]triazol-7-yl)benzyl)-6,7-dihydro-5H-pyrrolo[3,4-b]pyridin-5-one] | 39 | ≥ 10000 | inactive |  |  | 
3 | Cn1cc2c(-c3cc(F)c(CN4Cc5ncccc5C4=O)c(F)c3)ccc(C(O)(C3CC3)C3CC3)c2n1 [Compound 84, 6-(4-(7-(dicyclopropyl(hydroxy)methyl)-2-methyl-2H-indazol-4-yl)-2,6-difluorobenzyl)-6,7-dihydro-5H-pyrrolo[3,4-b]pyridin-5-one] | 84 | 1440 | inactive |  |  | 
4 | Cc1cc(-c2ccc(C(O)(C3CC3)C3CC3)c3nn(C)cc23)cc(F)c1CN1Cc2ncccc2C1=O [Compound 85, 6-(4-(7-(dicyclopropyl(hydroxy)methyl)-2-methyl-2H-indazol-4-yl)-2-fluoro-6-methylbenzyl)-6,7-dihydro-5H-pyrrolo[3,4-b]pyridin-5-one] | 81 | 1700 | inactive |  |  | 
5 | Cn1cc2cc(C(C)(C)O)cc(-c3cc(F)c(CN4Cc5ncccc5C4=O)c(F)c3)c2n1 [Compound 86, 6-(2,6-difluoro-4-(5-(2-hydroxypropan-2-yl)-2-methyl-2H-indazol-7-yl)benzyl)-6,7-dihydro-5H-pyrrolo[3,4-b]pyridin-5-one] |  |  | inactive | inactive |  | 
6 | CC(C)(O)c1ccc(-c2cc(F)c(CN3Cc4ncccc4C3=O)c(F)c2)c2c1OCO2 [Compound 87, 6-(2,6-difluoro-4-(7-(2-hydroxypropan-2-yl)benzo[d][1,3]dioxol-4-yl)benzyl)-6,7-dihydro-5H-pyrrolo[3,4-b]pyridin-5-one] | 73 | 1000 | inactive |  |  | 
7 | Cn1cc2cc(-c3cc(F)c(CN4Cc5ncccc5C4=O)c(C4CC4)c3)cc(C(C)(C)O)c2n1 [Compound 88, 6-(2-cyclopropyl-6-fluoro-4-(7-(2-hydroxypropan-2-yl)-2-methyl-2H-indazol-5-yl)benzyl)-6,7-dihydro-5H-pyrrolo[3,4-b]pyridin-5-one] | 82 | 398 |  |  | ≥ 10000 | 21
8 | Cn1cc2c(-c3cc(F)c(CN4Cc5ncccc5C4=O)c(F)c3)ccc(C3(O)COC3)c2n1 [Compound 89, 6-(2,6-Difluoro-4-(7-(3-hydroxyoxetan-3-yl)-2-methyl-2H-indazol-4-yl)benzyl)-6,7-dihydro-5H-pyrrolo[3,4-b]pyridin-5-one] | 82 | 254 |  |  | 6840 | 11
9 | Cn1cc2c(-c3cc(F)c(CN4Cc5ncccc5C4=O)c(F)c3)ccc(C3(O)CCOC3)c2n1 (stereo not shown) [Compound 90, 6-(2,6-difluoro-4-(7-(3-hydroxytetrahydrofuran-3-yl)-2-methyl-2H-indazol-4-yl)benzyl)-6,7-dihydro-5H-pyrrolo[3,4-b]pyridin-5-one] | 83 | 116 |  |  | 2460 | 20
10 | Cn1cc2c(-c3cc(F)c(CN4Cc5ncccc5C4=O)c(F)c3)ccc(C3(O)CCCC3)c2n1 [Compound 91, 6-(2,6-difluoro-4-(7-(1-hydroxycyclopentyl)-2-methyl-2H-indazol-4-yl)benzyl)-6,7-dihydro-5H-pyrrolo[3,4-b]pyridin-5-one] | 72 | 254 |  |  | 7030 | 15
11 | Cn1cc2c(-c3cc(F)c(CN4Cc5ncccc5C4=O)c(F)c3)ccc(C3(O)CCOCC3)c2n1 [Compound 92, 6-(2,6-difluoro-4-(7-(4-hydroxytetrahydro-2H-pyran-4-yl)-2-methyl-2H-indazol-4-yl)benzyl)-6,7-dihydro-5H-pyrrolo[3,4-b]pyridin-5-one] | 81 | 76 |  |  | 1400 | 22
12 | [2H]C([2H])([2H])C(O)(c1ccc(-c2cc(F)c(CN3Cc4ncccc4C3=O)c(F)c2)c2cn(C)nc12)C([2H])([2H])[2H] [Compound 93, 6-(2,6-difluoro-4-(7-(2-hydroxypropan-2-yl-1,1,1,3,3,3-d6)-2-methyl-2H-indazol-4-yl)benzyl)-6,7-dihydro-5H-pyrrolo[3,4-b]pyridin-5-one] | 83 | 76 |  |  | 1870 | 22
13 | C[C@H](c1c(F)cc(-c2ccc(C(C)(C)O)c3nn(C)cc23)cc1F)N1Cc2ncccc2C1=O [Compound 94, (R)-6-(1-(2,6-difluoro-4-(7-(2-hydroxypropan-2-yl)-2-methyl-2H-indazol-4-yl)phenyl)ethyl)-6,7-dihydro-5H-pyrrolo[3,4-b]pyridin-5-one] | 60 | 1270 | inactive |  |  | 
14 | [2H]C([2H])([2H])C(C)(O)c1ccc(-c2cc(F)c(CN3Cc4ncccc4C3=O)c(F)c2)c2cn(C)nc12 (stereo not shown) [Compound 95, 6-(2,6-difluoro-4-(7-(2-hydroxypropan-2-yl-1,1,1-d3)-2-methyl-2H-indazol-4-yl)benzyl)-6,7-dihydro-5H-pyrrolo[3,4-b]pyridin-5-one] | 86 | 96 |  |  | 1860 | 27
15 | Cn1cc2c(-c3cc(F)c(CN4Cc5ncccc5C4=O)c(F)c3)ccc(C3(O)CCC3)c2n1 [Compound 96, 6-(2,6-difluoro-4-(7-(1-hydroxycyclobutyl)-2-methyl-2H-indazol-4-yl)benzyl)-6,7-dihydro-5H-pyrrolo[3,4-b]pyridin-5-one] | 84 | 630 | inactive |  |  | 
16 | Cn1cc2c(-c3cc(F)c(CN4Cc5ncccc5C4=O)c(F)c3)ccc(C(C)(O)CS(C)(=O)=O)c2n1 (stereo not shown) [Compound 97, 6-(2,6-difluoro-4-(7-(2-hydroxy-1-(methylsulfonyl)propan-2-yl)-2-methyl-2H-indazol-4-yl)benzyl)-6,7-dihydro-5H-pyrrolo[3,4-b]pyridin-5-one] | 87 | 872 | inactive |  |  | 
17 | C[C@@H](c1c(F)cc(-c2ccc(C(C)(C)O)c3nn(C)cc23)cc1F)N1Cc2ncccc2C1=O [Compound 98, (S)-6-(1-(2,6-difluoro-4-(7-(2-hydroxypropan-2-yl)-2-methyl-2H-indazol-4-yl)phenyl)ethyl)-6,7-dihydro-5H-pyrrolo[3,4-b]pyridin-5-one] | 80 | 1120 | inactive |  |  | 
18 | CCn1cc2c(-c3cc(F)c(CN4Cc5ncccc5C4=O)c(F)c3)ccc(C(C)(C)O)c2n1 [Compound 99, 6-(4-(2-ethyl-7-(2-hydroxypropan-2-yl)-2H-indazol-4-yl)-2,6-difluorobenzyl)-6,7-dihydro-5H-pyrrolo[3,4-b]pyridin-5-one] | 85 | 176 |  |  | 4110 | 13
